# Measurements from patent publication EP1295874A2, “Retroviral protease inhibiting compounds” (Abbott Laboratories, priority 1995, dated 1997).
# How the values were obtained:
# Test in all cases: microbe, parasite or virus in culture
# Assay type in all cases: cell-based
# [1] = test system: HIV Selected In Vitro by the Compound of Example 2B
# [2] = test system: Ritonavir-Resistant Mutant HIV Clones
# [3] = test system: Ritonavir-Resistant HIV from Patients
structure (smiles),measurement,setting,value
CC(C)c1nc(CN(C)C(=O)N[C@H](C(=O)N[C@@H](Cc2ccccc2)C[C@H](O)[C@H](Cc2ccccc2)NC(=O)OCc2cncs2)C(C)C)cs1 [Ritonavir],EC50,"[1]; Human immunodeficiency virus 1, NL43, Virus NL4-3",98 nM
same,EC50,"[1]; Human immunodeficiency virus 1, Virus P7",221 nM
same,EC50,"[1]; Human immunodeficiency virus 1, Virus P11",478 nM
same,EC50,"[1]; Human immunodeficiency virus 1, Virus P14",1740 nM
same,EC50,"[1]; Human immunodeficiency virus 1, Virus P17",2090 nM
same,cross-resistance (fold),"[1]; passaged virus P14, P17",18-20 fold
same,EC50,"[2]; Human immunodeficiency virus 1, HXB2, Virus Clone Wild Type (HXB2), 0% Human Serum",64 nM
same,EC50,"[2]; Human immunodeficiency virus 1, HXB2, Virus Clone Wild Type (HXB2), 50% Human Serum",1050 nM
same,EC50,"[2]; Human immunodeficiency virus 1, Virus Clone E35D, M36I, I54V, A71V, V82T, 0% Human Serum",1170 nM
same,EC50,"[2]; Human immunodeficiency virus 1, Virus Clone E35D, M36I, I54V, A71V, V82T, 50% Human Serum",21900 nM
same,EC50,"[2]; Human immunodeficiency virus 1, Virus Clone G48V, 0% Human Serum",111 nM
same,EC50,"[2]; Human immunodeficiency virus 1, Virus Clone G48V, 50% Human Serum",1710 nM
same,EC50,"[2]; Human immunodeficiency virus 1, Virus Clone I54V, V82T, 0% Human Serum",613 nM
same,EC50,"[2]; Human immunodeficiency virus 1, Virus Clone I54V, V82T, 50% Human Serum",16700 nM
same,EC50,"[2]; Human immunodeficiency virus 1, Virus Clone I84V, 0% Human Serum",141 nM
same,EC50,"[2]; Human immunodeficiency virus 1, Virus Clone I84V, 50% Human Serum",2720 nM
same,EC50,"[2]; Human immunodeficiency virus 1, Virus Clone K20R, E35D, M36I, I54V, A71V, V82T, 0% Human Serum",1420 nM
same,EC50,"[2]; Human immunodeficiency virus 1, Virus Clone K20R, E35D, M36I, I54V, A71V, V82T, 50% Human Serum",16000 nM
same,EC50,"[2]; Human immunodeficiency virus 1, Virus Clone L90M, 0% Human Serum",93 nM
same,EC50,"[2]; Human immunodeficiency virus 1, Virus Clone L90M, 50% Human Serum",2280 nM
same,EC50,"[2]; Human immunodeficiency virus 1, Virus Clone V82A, 0% Human Serum",144 nM
same,EC50,"[2]; Human immunodeficiency virus 1, Virus Clone V82A, 50% Human Serum",4080 nM
same,EC50,"[2]; Human immunodeficiency virus 1, Virus Clone V82F, 0% Human Serum",146 nM
same,EC50,"[2]; Human immunodeficiency virus 1, Virus Clone V82F, 50% Human Serum",3600 nM
same,EC50,"[2]; Human immunodeficiency virus 1, Virus Clone V82S, 0% Human Serum",304 nM
same,EC50,"[2]; Human immunodeficiency virus 1, Virus Clone V82S, 50% Human Serum",9220 nM
same,EC50,"[2]; Human immunodeficiency virus 1, Virus Clone V82T, 0% Human Serum",146 nM
same,EC50,"[2]; Human immunodeficiency virus 1, Virus Clone V82T, 50% Human Serum",5640 nM
same,EC50,"[2]; Human immunodeficiency virus 1, Virus Clone Wild Type (pNL4-3), 0% Human Serum",71 nM
same,EC50,"[2]; Human immunodeficiency virus 1, Virus Clone Wild Type (pNL4-3), 50% Human Serum",1400 nM
same,EC50,"[3]; Human immunodeficiency virus 1, 24 h, Patient No. 313, Day 1, baseline",12 nM
same,EC50,"[3]; Human immunodeficiency virus 1, 24 h, Patient No. 410, Day 1, baseline",29 nM
same,EC50,"[3]; Human immunodeficiency virus 1, 504 h, Patient No. 104, Day 21, V82A",46 nM
same,EC50,"[3]; Human immunodeficiency virus 1, 672 h, Patient No. 104, Day 28, V82T",67 nM
same,EC50,"[3]; Human immunodeficiency virus 1, Patient No. 104, Day -1, baseline",21 nM
same,EC50,"[3]; Human immunodeficiency virus 1, Patient No. 129, Day 84, M36I, I54V, A71V, V82T",203 nM
same,EC50,"[3]; Human immunodeficiency virus 1, Patient No. 129, Day 140, K20K/R, M36M/I, I54V, A71A/V, V82T",677 nM
same,EC50,"[3]; Human immunodeficiency virus 1, Patient No. 129, Day -1, baseline",24 nM
same,EC50,"[3]; Human immunodeficiency virus 1, Patient No. 131, Day 88, M36I, 154V>I, V82A",163 nM
same,EC50,"[3]; Human immunodeficiency virus 1, Patient No. 131, Day 200, K20K/R, M36I, I54I/V, V82A",731 nM
same,EC50,"[3]; Human immunodeficiency virus 1, Patient No. 131, Day -28, baseline",18 nM
same,EC50,"[3]; Human immunodeficiency virus 1, Patient No. 224, Day 110, L33L/F, V82T/S",79 nM
same,EC50,"[3]; Human immunodeficiency virus 1, Patient No. 224, Day 190, K20K/N/R, L33L/F, M36M/I, I54V/M, V82S",496 nM
same,EC50,"[3]; Human immunodeficiency virus 1, Patient No. 224, Day -6, baseline",29 nM
same,EC50,"[3]; Human immunodeficiency virus 1, Patient No. 235, Day 167, I54I/V, A71V, V82A. L90L/M",66 nM
same,EC50,"[3]; Human immunodeficiency virus 1, Patient No. 235, Day -1, baseline",10 nM
same,EC50,"[3]; Human immunodeficiency virus 1, Patient No. 313, Day 57, M36M/I, V82F",64 nM
same,EC50,"[3]; Human immunodeficiency virus 1, Patient No. 313, Day 85, M36M/I, I54I/V, V82S/F/A/T",274 nM
same,EC50,"[3]; Human immunodeficiency virus 1, Patient No. 410, Day 57, M36M/I, I54I/V, V82A",341 nM
same,EC50,"[3]; Human immunodeficiency virus 1, Patient No. 410, Day 85, M36I, I54V, V82A",545 nM
